Results reported in ChEMBL document CHEMBL3526130, “An evaluation of using rat-derived single-dose neuropharmacokinetic parameters to project accurately large animal unbound brain drug concentrations” (Drug Metab Dispos, 2012).

Columns and labels:
Nucleic Acid [1] = assay: Ratio of drug level in cerebrospinal fluid to unbound plasma concentration in Sprague-Dawley rat at 3 mg/kg, sc by LC-MS/MS analysis; format: ADME, organism-based; parameters: dose 3 mg/kg, route subcutaneous; conditions: in vivo
[2] = AUC(0 to 7 hrs) in Sprague-Dawley rat brain at 3 mg/kg, sc by LC-MS/MS analysis; format: ADME, organism-based; parameters: time < 7 hr, dose 3 mg/kg, route subcutaneous
[3] = Ratio of drug level in brain to plasma in Sprague-Dawley rat at 3 mg/kg, sc by LC-MS/MS analysis; format: ADME, organism-based; parameters: dose 3 mg/kg, route subcutaneous; conditions: read-out: BPR
[4] = AUC(0 to 7 hrs) in Sprague-Dawley rat cerebrospinal fluid at 3 mg/kg, sc by LC-MS/MS analysis; format: ADME, organism-based; parameters: time < 7 hr, dose 3 mg/kg, route subcutaneous
[5] = AUC(0 to infinity) in Sprague-Dawley rat cerebrospinal fluid at 3 mg/kg, sc by LC-MS/MS analysis; format: ADME, organism-based; parameters: dose 3 mg/kg, route subcutaneous, time infinity
[6] = AUC(0 to 7 hrs) in Sprague-Dawley rat plasma at 3 mg/kg, sc by LC-MS/MS analysis; format: ADME, organism-based; parameters: time < 7 hr, dose 3 mg/kg, route subcutaneous
[7] = AUC(0 to infinity) in Sprague-Dawley rat plasma at 3 mg/kg, sc by LC-MS/MS analysis; format: ADME, organism-based; parameters: time infinity, dose 3 mg/kg, route subcutaneous
[8] = Ratio of unbound drug level in brain to plasma in Sprague-Dawley rat at 3 mg/kg, sc by LC-MS/MS analysis; format: ADME, organism-based; parameters: dose 3 mg/kg, route subcutaneous
[9] = AUC(0 to infinity) in Sprague-Dawley rat brain at 3 mg/kg, sc by LC-MS/MS analysis; format: ADME, organism-based; parameters: dose 3 mg/kg, route subcutaneous, time infinity
[10] = Ratio of unbound brain concentration to drug level in cerebrospinal fluid in Sprague-Dawley rat at 3 mg/kg, sc by LC-MS/MS analysis; format: ADME, organism-based; parameters: dose 3 mg/kg, route subcutaneous; conditions: in vivo
[11] = AUC(0 to 2 hrs) in Beagle dog cerebrospinal fluid treated with risperidone at 0.1 mg/kg, sc by LC-MS/MS analysis; format: ADME, organism-based, Canis lupus familiaris; parameters: time < 2 hr, dose 0.1 mg/kg, route subcutaneous
[12] = Ratio of drug level in brain to plasma in cynomolgus monkey treated with risperidone at 0.1 mg/kg, sc by LC-MS/MS analysis; format: ADME, organism-based, Macaca fascicularis; parameters: dose 0.1 mg/kg, route subcutaneous; conditions: brain and plasma, read-out: BPR
[13] = Ratio of unbound brain concentration to drug level in cerebrospinal fluid in cynomolgus monkey treated with risperidone at 0.1 mg/kg, sc by LC-MS/MS analysis; format: ADME, organism-based, Macaca fascicularis; parameters: dose 0.1 mg/kg, route subcutaneous; conditions: in vivo
[14] = AUC(0 to 2 hrs) in Sprague-Dawley rat cerebrospinal fluid treated with risperidone at 1 mg/kg, sc by LC-MS/MS analysis; format: ADME, organism-based; parameters: time < 2 hr, dose 1 mg/kg, route subcutaneous
[15] = Ratio of unbound brain concentration to drug level in cerebrospinal fluid in Sprague-Dawley rat treated with risperidone at 1 mg/kg, sc by LC-MS/MS analysis; format: ADME, organism-based; parameters: dose 1 mg/kg, route subcutaneous; conditions: in vivo
[16] = AUC(0 to infinity) in Sprague-Dawley rat cerebrospinal fluid treated with risperidone at 1 mg/kg, sc by LC-MS/MS analysis; format: ADME, organism-based; parameters: time infinity, dose 1 mg/kg, route subcutaneous
[17] = Ratio of unbound drug level in brain to plasma in Beagle dog treated with risperidone at 0.1 mg/kg, sc by LC-MS/MS analysis; format: ADME, organism-based, Canis lupus familiaris; parameters: dose 0.1 mg/kg, route subcutaneous; conditions: brain and plasma
[18] = Ratio of unbound drug level in brain to plasma in Sprague-Dawley rat treated with risperidone at 1 mg/kg, sc by LC-MS/MS analysis; format: ADME, organism-based; parameters: dose 1 mg/kg, route subcutaneous
[19] = AUC(0 to 2 hrs) in Beagle dog plasma treated with risperidone at 0.1 mg/kg, sc by LC-MS/MS analysis; format: ADME, organism-based, Canis lupus familiaris; parameters: time < 2 hr, dose 0.1 mg/kg, route subcutaneous
[20] = AUC(0 to infinity) in Sprague-Dawley rat brain treated with risperidone at 1 mg/kg, sc by LC-MS/MS analysis; format: ADME, organism-based; parameters: time infinity, dose 1 mg/kg, route subcutaneous
[21] = Ratio of unbound brain concentration to drug level in cerebrospinal fluid in Beagle dog treated with risperidone at 0.1 mg/kg, sc by LC-MS/MS analysis; format: ADME, organism-based, Canis lupus familiaris; parameters: dose 0.1 mg/kg, route subcutaneous; conditions: in vivo
[22] = Ratio of drug level in brain to plasma in Sprague-Dawley rat treated with risperidone at 1 mg/kg, sc by LC-MS/MS analysis; format: ADME, organism-based; parameters: dose 1 mg/kg, route subcutaneous; conditions: read-out: BPR
[23] = AUC(0 to 1 hr) in cynomolgus monkey brain treated with risperidone at 0.1 mg/kg, sc by LC-MS/MS analysis; format: ADME, organism-based, Macaca fascicularis; parameters: time < 1 hr, dose 0.1 mg/kg, route subcutaneous
[24] = Unbound fraction in cynomolgus monkey brain treated with risperidone at 0.1 mg/kg, sc by LC-MS/MS analysis; format: ADME, organism-based, Macaca fascicularis; parameters: dose 0.1 mg/kg, route subcutaneous
[25] = Unbound fraction in Beagle dog plasma treated with risperidone at 0.1 mg/kg, sc by LC-MS/MS analysis; format: ADME, organism-based, Canis lupus familiaris; parameters: dose 0.1 mg/kg, route subcutaneous
[26] = AUC(0 to 2 hrs) in Sprague-Dawley rat brain treated with risperidone at 1 mg/kg, sc by LC-MS/MS analysis; format: ADME, organism-based; parameters: time < 2 hr, dose 1 mg/kg, route subcutaneous
[27] = Unbound fraction in cynomolgus monkey plasma treated with risperidone at 0.1 mg/kg, sc by LC-MS/MS analysis; format: ADME, organism-based, Macaca fascicularis; parameters: dose 0.1 mg/kg, route subcutaneous
[28] = AUC(0 to infinity) in Sprague-Dawley rat plasma treated with risperidone at 1 mg/kg, sc by LC-MS/MS analysis; format: ADME, organism-based; parameters: time infinity, dose 1 mg/kg, route subcutaneous
[29] = Ratio of drug level in brain to plasma in Beagle dog treated with risperidone at 0.1 mg/kg, sc by LC-MS/MS analysis; format: ADME, organism-based, Canis lupus familiaris; parameters: dose 0.1 mg/kg, route subcutaneous; conditions: brain and plasma, read-out: BPR
[30] = AUC(0 to 1 hr) in cynomolgus monkey plasma treated with risperidone at 0.1 mg/kg, sc by LC-MS/MS analysis; format: ADME, organism-based, Macaca fascicularis; parameters: time < 1 hr, dose 0.1 mg/kg, route subcutaneous
[31] = Ratio of unbound drug level in brain to plasma in cynomolgus monkey treated with risperidone at 0.1 mg/kg, sc by LC-MS/MS analysis; format: ADME, organism-based, Macaca fascicularis; parameters: dose 0.1 mg/kg, route subcutaneous; conditions: brain and plasma
[32] = AUC(0 to 1 hr) in cynomolgus monkey cerebrospinal fluid treated with risperidone at 0.1 mg/kg, sc by LC-MS/MS analysis; format: ADME, organism-based, Macaca fascicularis; parameters: time < 1 hr, dose 0.1 mg/kg, route subcutaneous
[33] = Unbound fraction in Beagle dog brain treated with risperidone at 0.1 mg/kg, sc by LC-MS/MS analysis; format: ADME, organism-based, Canis lupus familiaris; parameters: dose 0.1 mg/kg, route subcutaneous
Nucleic Acid [34] = assay: Ratio of drug level in cerebrospinal fluid to unbound plasma concentration in Sprague-Dawley rat treated with risperidone at 1 mg/kg, sc by LC-MS/MS analysis; format: ADME, organism-based; parameters: dose 1 mg/kg, route subcutaneous; conditions: in vivo
[35] = AUC(0 to 2 hrs) in Beagle dog brain treated with risperidone at 0.1 mg/kg, sc by LC-MS/MS analysis; format: ADME, organism-based, Canis lupus familiaris; parameters: time < 2 hr, dose 0.1 mg/kg, route subcutaneous
[36] = AUC(0 to 2 hrs) in Sprague-Dawley rat plasma treated with risperidone at 1 mg/kg, sc by LC-MS/MS analysis; format: ADME, organism-based; parameters: time < 2 hr, dose 1 mg/kg, route subcutaneous

Q: For CCN(CC)CCNC(=O)c1cc(Cl)c(N)cc1OC [METOCLOPRAMIDE], which Ratio (Nucleic Acid [1]) is on record?
A: The Ratio was 1.8.

Q: And the AUC(0-t) at 7 h [2]?
A: The AUC(0-t) at 7 h was 629 ng·h/mL.

Q: And the Kp [3]?
A: The Kp was 1.72.

Q: What about the AUC(0-t) at 7 h [4] of the same compound?
A: Its AUC(0-t) at 7 h is 418 ng·h/mL.

Q: And the AUC(0-inf) [5]?
A: Its AUC(0-inf) is 420 ng·h/mL.

Q: What about the AUC(0-t) at 7 h [6] of the same compound?
A: Its AUC(0-t) at 7 h is 365 ng·h/mL.

Q: What about the AUC(0-inf) [7] of the same compound?
A: The AUC(0-inf) was 367 ng·h/mL.

Q: And the Kp uu [8]?
A: Its Kp uu is 0.89.

Q: And the AUC(0-inf) [9]?
A: Its AUC(0-inf) is 635 ng·h/mL.

Q: And the Ratio [10]?
A: The Ratio was 0.5.

Q: Which AUC(0-t) at 2 h [11] does the source give for Cc1nc2n(c(=O)c1CCN1CCC(c3noc4cc(F)ccc34)CC1)CCCC2O (stereo unspecified) [PALIPERIDONE] here?
A: The AUC(0-t) at 2 h was 6.27 ng·h/mL.

Q: What about the Kp [12] of the same compound?
A: Its Kp is 0.33.

Q: What about the Ratio [13] of the same compound?
A: Its Ratio is 1.03.

Q: And the AUC(0-t) at 2 h [14]?
A: Its AUC(0-t) at 2 h is 3.28 ng·h/mL.

Q: And the Ratio [15]?
A: Its Ratio is 0.31.

Q: What about the AUC(0-inf) [16] of the same compound?
A: Its AUC(0-inf) is 12.2 ng·h/mL.

Q: And the Kp uu [17]?
A: Its Kp uu is 0.27.

Q: And the Kp uu [18]?
A: The Kp uu was 0.04.

Q: And the AUC(0-t) at 2 h [19]?
A: Its AUC(0-t) at 2 h is 77.4 ng·h/mL.

Q: What about the AUC(0-inf) [20] of the same compound?
A: The AUC(0-inf) was 69 ng·h/mL.

Q: What about the Ratio [21] of the same compound?
A: Its Ratio is 0.68.

Q: What about the Kp [22] of the same compound?
A: Its Kp is 0.07.

Q: What about the AUC(0-t) at 1 h [23] of the same compound?
A: Its AUC(0-t) at 1 h is 24.8 ng·h/mL.

Q: And the fraction unbound [24]?
A: Its fraction unbound is 0.105.

Q: What about the fraction unbound [25] of the same compound?
A: The fraction unbound was 0.203.

Q: What about the AUC(0-t) at 2 h [26] of the same compound?
A: Its AUC(0-t) at 2 h is 13.5 ng·h/mL.

Q: What about the fraction unbound [27] of the same compound?
A: Its fraction unbound is 0.185.

Q: What about the AUC(0-inf) [28] of the same compound?
A: Its AUC(0-inf) is 342 ng·h/mL.

Q: What about the Kp [29] of the same compound?
A: The Kp was 0.61.

Q: What about the AUC(0-t) at 1 h [30] of the same compound?
A: Its AUC(0-t) at 1 h is 76 ng·h/mL.

Q: What about the Kp uu [31] of the same compound?
A: Its Kp uu is 0.19.

Q: What about the AUC(0-t) at 1 h [32] of the same compound?
A: The AUC(0-t) at 1 h was 2.54 ng·h/mL.

Q: And the fraction unbound [33]?
A: Its fraction unbound is 0.0903.

Q: And the Ratio (Nucleic Acid [34])?
A: Its Ratio is 0.14.

Q: What about the AUC(0-t) at 2 h [35] of the same compound?
A: Its AUC(0-t) at 2 h is 47.1 ng·h/mL.

Q: And the AUC(0-t) at 2 h [36]?
A: The AUC(0-t) at 2 h was 184 ng·h/mL.
